Biological target: T1, hSARM1 (Homo sapiens, UniProt Q6SZW1)
T1 sequence (Q6SZW1 28-724): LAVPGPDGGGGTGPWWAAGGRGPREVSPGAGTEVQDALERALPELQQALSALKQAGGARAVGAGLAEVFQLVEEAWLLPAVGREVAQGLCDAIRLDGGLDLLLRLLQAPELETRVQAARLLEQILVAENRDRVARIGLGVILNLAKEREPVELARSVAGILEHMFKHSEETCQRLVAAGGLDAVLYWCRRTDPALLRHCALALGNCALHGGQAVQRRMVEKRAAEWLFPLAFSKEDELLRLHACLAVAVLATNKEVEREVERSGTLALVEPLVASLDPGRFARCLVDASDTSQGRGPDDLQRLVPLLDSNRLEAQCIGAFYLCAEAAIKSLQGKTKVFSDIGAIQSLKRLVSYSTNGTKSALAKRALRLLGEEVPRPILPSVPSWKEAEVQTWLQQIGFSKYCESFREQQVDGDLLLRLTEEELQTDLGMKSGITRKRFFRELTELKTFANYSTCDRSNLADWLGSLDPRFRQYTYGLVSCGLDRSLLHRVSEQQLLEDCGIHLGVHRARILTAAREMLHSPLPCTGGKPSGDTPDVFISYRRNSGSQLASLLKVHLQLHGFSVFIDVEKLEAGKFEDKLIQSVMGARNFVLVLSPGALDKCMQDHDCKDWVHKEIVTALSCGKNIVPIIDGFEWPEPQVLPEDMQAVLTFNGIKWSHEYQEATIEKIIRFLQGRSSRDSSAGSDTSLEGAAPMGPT
Assay: Human SARM1 activity measurement in HEK293 cells transiently transfected with ΔN-hSARM1 (PC6 fluorescent probe)
Format: cell-based
Set-up: expressed in transfected cells; host or cells: HEK293, pcDNA3 expression vector
Conditions: inhibition rate; compound 30 µM; PC6 50 µM; HEK293 cells expressing ΔN-hSARM1; approximately 48 hours from transfection; read-out: Evaluation on hSARM1 inhibitory
Outline: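 HEK293 cells in nicotinamide-free DMEM with 5 μM nicotinamide, transiently transfected with mitochondrial-targeting-deleted ΔN-hSARM1; PC6 base-exchange fluorescent probe (50 μM) plus compound (30 μM) added ~8 h post-transfection. Fluorescence (ex 405/em 525 nm) read ~48 h from transfection; inhibition % versus transfected DMSO control, untransfected background subtracted.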

inhibition at 30 µM | Structure (SMILES)
> 75% | O=C(NCCCOCCOCCCNC(=O)c1cccnc1)c1cccnc1 [compound 35]
> 50% | CC(C)(C)C(=O)Nc1ccc(CNC(=O)c2cccnc2)cn1 [compound 76]
> 50% | O=C(NCc1ccc(NC(=O)c2ccccc2)nc1)c1cccnc1 [compound 105]

From patent publication EP4793271A1, “NEUROPROTECTIVE AGENT” (National Center of Neurology and Psychiatry, priority 2023, dated 2025)
